Where two headings read alike, the source gives them in different places.
Legend:
HepG2 = assay: MTT test for inhibition of tumor cells, HepG2; type: cell-based; conditions: 48 h
Method: (§1) HepG2, HeLa cell lines and human normal liver cells HL-7702 in a logarithmic growth period were centrifuged at 1000 rpm for 5 min, and the supernatant was discarded, the cells were suspended with a suitable amount of culture medium to adjust the cell concentration to 3.5×10^4/well, the cells were seeded in 96-well plates, and the following experimental groups were set:
(§2) 100 μl of DMSO was added to each well, followed by shaking on a shaker for 30 min at 37° C., the absorbance (OD) was measured at 492 nm, and the MTT ratio was calculated as the OD value of drug group/OD value of negative control group.

HeLa = assay: MTT test for inhibition of tumor cells, HeLa; type: cell-based; conditions: 48 h
Method: as §1, §2

[1] = tested on: human normal hepatocytes HL-7702; assay: MTT test on human normal hepatocytes HL-7702; conditions: read-out: IC50 HL-7702
Method: as §1, §2

[2] = tested on: human normal hepatocytes HL-7702
Method: as §1, §2

breast cancer cell MCF7 = assay: Activity on tumor cell MCF7; type: cell-based, human; conditions: for antitumor activity on MCF7 compared with etoposide: vs etoposide
[3] = tested on: human lung cancer cell A549; assay: Activity on tumor cell A549; type: cell-based; conditions: vs etoposide
[4] = tested on: human embryonic lung cells MRC-5; assay: Toxicity on normal cell line MRC-5; type: cell-based; conditions: MRC5
[5] = tested on: human mammary epithelial cells HMEC; assay: Toxicity on normal cell line HMEC; type: cell-based
[6] = tested on: human cervical immortalized cells H8; assay: Toxicity on normal cell line H8; type: cell-based
[7] = human normal hepatocytes HL-7702, MTT, 48 h

Compound | IC50 (HepG2) [µM] | IC50 (HeLa) [µM] | IC50 [1, 7] [µM] | also measured
COc1cc(C2c3cc4c(cc3C(Sc3nc5cc(OC(F)F)ccc5[nH]3)C3COC(=O)C23)OCO4)cc(OC)c1O (stereo not drawn) [Compound 18, 4β-S-(5-difluoromethoxybenzimidazol-2)-4demethylepipodophyllotoxin] | 2.09 ± 0.17 | 7.6 ± 0.51 | 11.3 ± 1.87 | 
COc1cc([C@@H]2c3cc4c(cc3[C@@H](Sc3nc5cc(F)ccc5o3)[C@H]3COC(=O)[C@H]23)OCO4)cc(OC)c1O [Compound 10, 4β-S -(5-fluorobenzoxazol-2)-4demethylepipodophyllotoxin] |  |  |  | toxicity on HL-7702 cell line compared with control compounds [2]: significantly lower; antitumor activity on MCF7 compared with etoposide (breast cancer cell MCF7): significantly improved; antitumor activity on A549 compared with etoposide [3]: significantly improved
4β-S-(3-phenyl-1,3,4-thiadiazol-2(3H)thione potassium salt-5)-podophyllotoxin [Compound 25] | 2.2 ± 0.28 | 31.9 ± 0.42 |  | 
COc1cc([C@@H]2c3cc4c(cc3[C@@H](Sc3nc5cc(F)ccc5s3)[C@H]3COC(=O)[C@H]23)OCO4)cc(OC)c1O [Compound 8, 4β-S-(5-fluorobenzothiazol-2)-4demethylepipodophyllotoxin] |  |  |  | toxicity on HL-7702 cell line compared with control compounds [2]: significantly lower; antitumor activity on MCF7 compared with etoposide (breast cancer cell MCF7): significantly improved; antitumor activity on A549 compared with etoposide [3]: significantly improved
COc1cc(C2c3cc4c(cc3C(Sc3cc(C(F)(F)F)ccn3)C3COC(=O)C23)OCO4)cc(OC)c1O (stereo not drawn) [Compound 2, 4-β-S-(4-trifluoromethylpyridin-2)-4demethylepipodophyllotoxin] | 4.5 ± 0.45 | 4.58 ± 0.13 | 42.3 ± 1.52 | 
COc1cc(C2c3cc4c(cc3C(Sc3nc5cc(OC(F)F)ccc5[nH]3)C3COC(=O)C23)OCO4)cc(OC)c1OC (stereo not drawn) [Compound 17, 4β-S-(5-difluoromethoxybenzimidazol-2)-podophyllotoxin] | 0.92 ± 0.05 | 1.15 ± 0.16 | 8.15 ± 0.87 | 
COc1cc([C@@H]2c3cc4c(cc3[C@@H](Sc3nc(-c5ccncc5)cs3)[C@H]3COC(=O)[C@H]23)OCO4)cc(OC)c1O [Compound 28, 4β-S-(4-(4-pyridyl)thiazol-2)-4demethylepipodophyllotoxin] | 29.2 ± 1.34 | 24.1 ± 1.29 | 60.1 ± 2.88 | 
COc1cc(C2c3cc4c(cc3C(Sc3nc5ncccc5[nH]3)C3COC(=O)C23)OCO4)cc(OC)c1OC (stereo not drawn) [Compound 21, 4β-S-(1H-imidazo [4,5-B]pyridin-2)-podophyllotoxin] | 4.23 ± 0.36 | 64.23 ± 0.45 | 56.6 ± 2.34 | 
COc1cc(C2c3cc4c(cc3C(Sc3nc5cc(C)ccc5o3)C3COC(=O)C23)OCO4)cc(OC)c1O (stereo not drawn) [Compound 14, 4β-S-(5-methylbenzoxazol-2)-4demethylepipodophyllotoxin] | 7.94 ± 0.21 | 11.9 ± 0.99 | 78.7 ± 2.5 | 
COc1cc(C2c3cc4c(cc3C(Sc3nc5cc(C)ccc5o3)C3COC(=O)C23)OCO4)cc(OC)c1OC (stereo not drawn) [Compound 13, 4β-S-(5-methylbenzoxazol-2)-podophyllotoxin] | 7.31 ± 0.4 | 9.31 ± 0.6 | 60.1 ± 1.6 | 
4β-S-(5-phenylbenzoxazol-2)-4demethylepipodophyllotoxin [Compound 12] | 10.2 ± 0.46 | > 100 | 56.8 ± 1.32 | 
COc1cc([C@@H]2c3cc4c(cc3[C@H](O)[C@H]3COC(=O)[C@H]23)OCO4)cc(OC)c1OC [Podophyllotoxin, podophyllotoxin] |  |  |  | IC50 (HepG2; Homo sapiens): 55.53 ± 0.24 µM; IC50 (HeLa; Homo sapiens): 75.81 ± 0.73 µM; IC50 ([1]; Homo sapiens, L02, 48 h): 67.18 ± 0.24 µM
COc1cc(C2c3cc4c(cc3C(Sc3nccc(C(F)(F)F)n3)C3COC(=O)C23)OCO4)cc(OC)c1OC (stereo not drawn) [Compound 3, 4-β-S-(4-trifluoromethylpyrimidin-2)-podophyllotoxin] | 5.05 ± 0.78 | 10.1 ± 0.22 | 69.8 ± 1.23 | 
COc1cc(C2c3cc4c(cc3C(Sc3nc5cc(F)ccc5o3)C3COC(=O)C23)OCO4)cc(OC)c1OC (stereo not drawn) [Compound 9, 4β-S-(5-fluorobenzoxazol-2)-podophyllotoxin] | 0.89 ± 0.07 |  | > 1000 | 
COc1cc(C2c3cc4c(cc3C(Sc3ccc5ccccc5c3)C3COC(=O)C23)OCO4)cc(OC)c1OC (stereo not drawn) [Compound 19, 4β-S-(naphthalen-2)-podophyllotoxin] | 3.06 ± 0.11 | 3.91 ± 0.42 | 90.9 ± 3.49 | 
4β-S-(5-phenylbenzoxazol-2)-podophyllotoxin [Compound 11] | 5.25 ± 0.13 | > 100 | 70.7 ± 1.65 | 
COc1cc([C@@H]2c3cc4c(cc3[C@@H](O[C@@H]3O[C@@H]5CO[C@@H](C)O[C@H]5[C@H](O)[C@H]3O)[C@H]3COC(=O)[C@H]23)OCO4)cc(OC)c1O [Etoposide, etoposide, reference compound] |  |  |  | IC50 [4]: 30.3 ± 1.21 µM; IC50 (HepG2; Homo sapiens): 20.7 ± 1.7 µM; IC50 [5]: 23.2 ± 1.34 µM; IC50 (HeLa; Homo sapiens): 25.4 ± 2.9 µM; IC50 [6]: 80.1 ± 1.35 µM; IC50 (breast cancer cell MCF7; Homo sapiens, tumor cell line MCF7): 56.8 ± 1.22 µM; IC50 ([1]; Homo sapiens, L02, 48 h): 28.8 ± 3.4 µM
COc1cc(C2c3cc4c(cc3C(Sc3cc(C(F)(F)F)ccn3)C3COC(=O)C23)OCO4)cc(OC)c1OC (stereo not drawn) [Compound 1, 4-β-S-(4-trifluoromethylpyridin-2)-podophyllotoxin] | 2.04 ± 0.3 | 1.86 ± 0.2 | 57 ± 1.1 | 
COc1cc(C2c3cc4c(cc3C(Sc3nnnn3-c3ccccc3)C3COC(=O)C23)OCO4)cc(OC)c1OC (stereo not drawn) [Compound 23, 4β-S-(1-phenyltetrazol-5)-podophyllotoxin] | 6.17 ± 0.27 | 15.8 ± 0.56 | 87.1 ± 4.2 | 
COc1cc(C2c3cc4c(cc3C(Sc3nc5cc(F)ccc5s3)C3COC(=O)C23)OCO4)cc(OC)c1OC (stereo not drawn) [Compound 7, 4β-S-(5-fluorobenzothiazol-2)-podophyllotoxin] | 1 ± 0.06 | 1.47 ± 0.32 | 97 ± 2.1 | 
4β-S-(6-chlorobenzoxazol-2)-4demethylepipodophyllotoxin [Compound 16] | 22.3 ± 1.46 | 32.3 ± 1.87 | 68.3 ± 4.5 | 
COc1cc([C@@H]2c3cc4c(cc3[C@@H](Sc3nc(-c5ccncc5)cs3)[C@H]3COC(=O)[C@H]23)OCO4)cc(OC)c1OC [Compound 27, 4β-S-(4-(4-pyridyl)thiazol-2)-podophyllotoxin] | 0.89 ± 0.19 | 1.95 ± 0.36 | 71.4 ± 2.71 | 
4β-S-(3-phenyl-1,3,4-thiadiazol-2(3H)thione potassium salt-5)-4demethylepipodophyllotoxin [Compound 26] | 5.7 ± 0.33 | 48.49 ± 0.38 |  | 
COc1cc(C2c3cc4c(cc3C(Sc3ccc(F)cc3)C3COC(=O)C23)OCO4)cc(OC)c1OC (stereo not drawn) [Compound 5, 4β-S-(4-fluorobenzene-1)-podophyllotoxin] | 2.28 ± 0.1 | 9.5 ± 0.43 | 44.5 ± 1 | 
COc1cc(C2c3cc4c(cc3C(Sc3nccc(C(F)(F)F)n3)C3COC(=O)C23)OCO4)cc(OC)c1O (stereo not drawn) [Compound 4, 4-β-S-(4-trifluoromethylpyrimidin-2)-4demethylepipodophyllotoxin] | 7.37 ± 0.32 | 39.36 ± 0.35 | 54.9 ± 0.98 | 
4β-S-(6-chlorobenzoxazol-2)-podophyllotoxin [Compound 15] | 5.23 ± 0.35 | 7.23 ± 0.44 | 43.3 ± 3.5 | 

Reference: US11242354B2, “4-sulfur substituted podophyllotoxin derivative and preparation method therefor and use thereof” (priority 2017, dated 2022)
